# Patent US20120122870A1, “Treatment Of Ischemia-Reperfusion Injury” (MUSC FOUNDATION FOR RESEARCH DEVELOPMENT, priority 2009, published 2012)
# Entries after “also recorded” stand apart in the source; their conditions may differ.
# How the values were obtained:
# [1] = system: kidney damage after severe ischemia-reperfusion; experiment: Kidney histology (H&E) after severe kidney IR; format: in vivo, mice; conditions: 4 and 48 hours post ischemia and reperfusion
# Method: Kidneys from the animals described with respect to FIG. 4 were sectioned and stained with H&E for histological evaluation. […] Kidney sections were quantitatively scored on a scale of 1 to 3 for five parameters (tubule cell swelling, tubular dilatation, edema, epithelial necrosis and tubular casts) that were added to generate a total score (FIG. 6).
# hepatic warm IR in mice = experiment: Serum ALT and total bilirubin after hepatic warm IR; format: in vivo
# Method: Liver warm ischemia was induced as described above. Blood was collected at 6 h after reperfusion, and serum alanine aminotransferase (ALT) activity and bilirubin were measured. Before ischemia, serum ALT levels were 22 U/L. At 6 h after reperfusion, ALT levels increased to ˜19,000 U/L in livers exposed to 1 h-ischemia (FIG. 12A). Pretreatment of the animals with ABC294640 decreased ALT levels after IR to ˜1,600 U/L, which reflects a >90% decrease compared to livers without ABC294640 treatment (FIG. 12A). […] Bilirubin accumulates in the blood when liver function is poor. Serum total bilirubin was 0.26 mg/dL in mice subjected to the sham operation. Bilirubin increased 3-fold 6 h after reperfusion (FIG. 12B). […] Clinical chemistry: Blood samples were collected from the vena cava at various times, and ALT and bilirubin were measured enzymatically using analytic kits from Pointe Scientific.
# [2] = system: lean liver transplantation in rats; experiment: Lean liver transplantation, serum ALT; format: in vivo; conditions: 60 μM in UW and Ringer's solutions plus 50 mg/kg i.p. to recipients; 6 h after LT; 8 h cold storage
# Method: ABC294640 decreases graft injury after lean LT. To investigate whether ABC294640 protects liver grafts after LT, a pilot study was conducted. Lean livers were explanted and stored in UW solution for 8 h. ABC294640 was added to the UW solution and the lactated Ringer's post-storage solution at a concentration of 60 μM and injected into the recipients (50 mg/kg, i.p.) immediately after transplantation. […] Liver transplantation: Inbred male Lewis rats (200-250 g) were used to prevent immunological interference. Under ether anesthesia, heparin (200 IU) in 0.5 mL of lactated Ringer's solution was injected into the subhepatic vena cava. A 4-mm long stent prepared from polyethylene tubing (PE50) was inserted into the common bile duct and secured with a 6-0 suture. Livers were then flushed with 5 ml of ice-cold UW cold storage solution. Venous cuffs prepared from 14-gauge i.v. catheters were placed in the subhepatic vena cava and the portal vein. Liver explants were stored in UW solution (0-1° C.) for 4-24 h, rinsed with lactated Ringer's solution and then implanted (n=10 in each group). […] Clinical chemistry: Blood samples were collected from the vena cava at various times, and ALT and bilirubin were measured enzymatically using analytic kits from Pointe Scientific.
# [3] = system: mitochondrial depolarization in hepatocytes; experiment: Intravital multiphoton microscopy of mitochondrial depolarization (Rh123/PI) after hepatic IR; format: in vivo, mice; conditions: 1 h of ischemia and 2 h of reperfusion
# Description: MPT onset is an important mechanism leading to cell death due to mitochondrial depolarization. […] There are two main advantages of multiphoton microscopy: 1) Red/infrared light penetrates deeper than visible light into solid tissues allowing visualization of tissue planes as deep as 1 mm into thick specimens. […] Therefore, the viability of thick living specimens is maintained much longer with multiphoton microscopy (Lemasters 2000). These advantages make multiphoton microscopy a powerful tool for studying mitochondrial function in live animals.
# Following 1 h-ischemia and […], rhodamine-123 (Rh123), a cationic fluorophore that is taken up by polarized mitochondria, and propidium iodine (PI) that labels the nuclei of non-viable cells were infused and intravital multiphoton imaging of livers was performed. […]
# Imaging of fluorescent probes Rh123, PI and calcein in vivo was achieved using a Zeiss LSM 510 laser scanning multiphoton microscope system using IR excitation of 800-900 nm from a Coherent Chameleon tunable Ti-Sapphire femtosecond pulsed laser, which excites both red- and green-fluorescing (rhodamine- and fluorescein-like) fluorophores. For calcein fluorescence, excitation of 720-nm was used.
# [4] = system: neutrophil influx into the kidney (MPO activity); experiment: Kidney myeloperoxidase (MPO) activity after severe kidney IR; format: in vivo, mice; conditions: 50 mg/kg
# Method: Myeloperoxidase (MPO) activity, which is reflective of neutrophil influx into the tissue, is often used as measure of local inflammation, and was assayed in the kidneys of the mice from FIG. 4. […] Therefore, the level of kidney MPO and expected inflammatory damage in vehicle-treated animals correlates with the observed reduction in renal function.
# [5] = system: hepatic apoptosis after warm IR; experiment: TUNEL apoptosis in liver after hepatic warm IR; format: in vivo, mice; conditions: 1 h-ischemia plus 6 h-reperfusion
# Method: ABC294640 prevents hepatic warm IR-induced cell death. SK increased after hepatic IR, therefore, we investigated whether ABC294640 protects against hepatic IR injury. […] Necrotic areas became panlobular after 1 h-ischemia plus 6 h of reperfusion (FIG. 10, middle). Necrotic area, quantified by computerized image analysis of 10 random fields per slide, accounted for 68% of the liver tissue (FIG. 11A). After ABC294640 treatment, necrosis was decreased to 7%, which represents an almost 90% attenuation as compared to the vehicle-treated livers (FIG. 11A). Hepatic apoptosis was evaluated by terminal deoxylnucleotidyl transferase-mediated deoxyuridine triphosphate biotin nick end labeling (TUNEL) (FIG. 11B). TUNEL-positive cells were rare in livers from sham-operated mice (0.13 cells/high power field (hpf)). TUNEL staining increased slightly to 2 cells/hpf after 1 h-ischemia plus 6 h-reperfusion (FIG. 11B). […] The TUNEL assay was performed to assess apoptosis using an In Situ Cell Death Detection Kit (Roche Diagnostics Corp., Indianapolis, Ind.). TUNEL-positive and negative cells were counted in 10 randomly selected fields using a 40× objective lens. Apoptosis was verified morphologically by identifying condensed and fragmented nuclei in 10 randomly selected fields in H+E slides ([…] et al. 1995).
smiles,measurement,setting,value
"O=C(NCc1ccncc1)C12CC3CC(C1)CC(c1ccc(Cl)cc1)(C3)C2 [ABC294640, 3-(4-chlorophenyl)-N-(pyridin-4-ylmethyl)adamantane-1-carboxamide]",kidney histological damage vs vehicle,[1],protects against microscopic damage; also recorded: much less damage
same,liver function / hepatic IR injury (in words),hepatic warm IR in mice; 1 h-ischemia plus 6 h-reperfusion,markedly decreases hepatic IR injury; also recorded: improves liver function
same,decrease of ALT compared to livers without treatment,"hepatic warm IR in mice; 1 h-ischemia, 6 h after reperfusion",> 90%
same,accumulation of serum total bilirubin,hepatic warm IR in mice; 6 h after reperfusion,almost completely reversed
same,serum ALT levels after IR,"hepatic warm IR in mice; pretreatment 50 mg/kg, 1 h-ischemia, 6 h after reperfusion","~1,600 U/L"
same,serum ALT after lean LT vs vehicle,[2],markedly attenuated; also recorded: decreases ALT release
same,mitochondrial depolarization after hepatic IR (in words),[3],rare and largely prevented and prevents mitochondrial depolarization
same,hepatocytes with mitochondrial depolarization,[3]; Rh123,17%
same,increase in kidney MPO activity (neutrophil infiltration),[4],reduces neutrophil infiltration; also recorded: completely blocked
same,increase of TUNEL-positive cells,[5],partially blocked
